These results are taken from PubChem BioAssay (NCI).

The structures appear in SMILES notation.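 96-well plates; 48 h exposure; 5 concentrations. Endpoints by linear interpolation between flanking doses. Not reached: highest tested concentration assigned. GI50 is the concentration that inhibits growth by half. TGI: total growth inhibition.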

Holding throughout (assay): NCI anticancer screen, dose series, 48 h
In test [1] the test system is SF-539 CNS.
In test [2] the test system is PC-3 prostate.
For test [3], the system named is SN12C renal.
Test [4] relates to KM12 colon.
For test [5], the system named is SR leukemia.
For test [6], the system named is SK-MEL-5 melanoma.
In test [7] the test system is OVCAR-4 ovarian.
For test [8], the system named is RXF 393 renal.
In test [9] the test system is SW-620 colon.
In test [10] the test system is EKVX NSCLC.

For the compound `COc1ccc(-c2cc(/C=C3\C(=O)Nc4ccc(Cl)cc43)[nH]n2)cc1`, the GI50 in [1] is 2.63 µM; in test [2], 4.03 µM; in test [3], 5.51 µM; in [4] it was 3.96 µM; in test [5], 4.24 µM; in [6], 5.17 µM. For the same compound, the results for the GI50 in test [7], in [8] and in [9] were 4.31 µM, 5.61 µM and 4.01 µM, respectively. The TGI in test [1] amounted to 7.68 µM; in test [2] it was 15.9 µM; in test [3], 18.2 µM; in [4] it was 19.6 µM; in test [5], 20.1 µM; in test [6], 23.6 µM. The TGI in [7] was found to be 17.3 µM; in [8], 19.1 µM; in [9] it was 15.5 µM.
With `COc1ccc(/C=C/c2nc(NCCCN(C)C)c3ccccc3n2)cc1`, the GI50 in test [1] was 1.69 µM; in test [2] it was 3.35 µM; in test [10], 5.17 µM; in test [3], 11.8 µM; in test [4] it was 1.73 µM; in [5], 1.86 µM. In addition, the GI50 in test [6] was 1.71 µM; in test [7], 2.07 µM; in [8], 3.68 µM; in [9], 1.67 µM. The TGI worked out at 3.15 µM in [1]; 15.2 µM in test [2]; 21.1 µM in [10]; 29.3 µM in test [3]; 3.13 µM in [4]; 4.2 µM in [5]. For the same compound, the TGI in [6] stood at 3.27 µM; in [7], 5.58 µM; in test [8] it was 12.1 µM; in [9], 3.49 µM.
In the case of `COCCOC(=O)NC(=O)Nc1ccc(/C(=N/O)c2ccc(Cl)cc2)cc1`, the GI50 in [1] is 0.121 µM; in test [2], 0.141 µM; in test [10] it was 0.161 µM; in test [3] it was 0.157 µM; in [4], 0.0996 µM; in [5], 0.0546 µM. Also, the GI50 is 0.0817 µM in test [6], 0.385 µM in test [7], 0.0866 µM in test [8] and 0.109 µM in test [9]. In addition, the TGI in test [1] is 0.341 µM; in test [2], 64.2 µM; in test [10] it was over 89.8 µM; in test [3], 59.3 µM; in test [4] it was 29.1 µM; in test [5], 10.8 µM. The TGI was 2.85 µM in [6], 54.2 µM in test [7], 3.2 µM in test [8] and over 100 µM in test [9].
Take `CN1CCCN(C)C1c1cc([N+](=O)[O-])ccc1O`: the TGI in test [1] is 74.9 µM; in test [2] it was 72.9 µM; in test [10], over 100 µM; in test [3], 85.7 µM; in test [4] it was over 100 µM; in [5] it was 59.3 µM. Also, the TGI is 48.4 µM in test [6], over 100 µM in [7], over 100 µM in test [8] and over 100 µM in [9].
For the compound `CCCCCCCCCCN(CCCCCCCCCC)CC(=O)c1ccc2cc(Br)c3ccccc3c2c1`, the GI50 is 2.05 µM in [1]; 2.67 µM in [2]; 5.31 µM in [10]; 1.6 µM in test [3]; 1.88 µM in test [4]; 1.3 µM in test [5]. In addition, the GI50 is 1.74 µM in test [6], 2.38 µM in test [7], 1.98 µM in test [8] and 1.87 µM in test [9]. Besides, the TGI stood at 3.7 µM in [1]; 8.95 µM in test [2]; 19.8 µM in test [10]; 3.33 µM in test [3]; 3.66 µM in test [4]; 4.19 µM in test [5]. The TGI worked out at 3.28 µM in test [6], 5.16 µM in [7], 3.5 µM in test [8] and 3.75 µM in test [9].
With `O=C(Nc1ccc(F)cc1)c1c(NC(=O)C(F)(F)F)sc2c1CCCCC2`, the GI50 in test [1] is 2.04 µM; in [2] it was 1.59 µM; in test [3], 1.94 µM; in [4] it was 1.96 µM; in [5] it was 1.29 µM; in test [6] it was 0.592 µM. Besides, the GI50 in [7] was 1.65 µM; in [8], 1.75 µM; in test [9], 2.51 µM. For the same compound, the TGI in test [1] is 11.8 µM; in test [2], 7.87 µM; in test [3], 8.67 µM; in test [4], 9.23 µM; in test [5], over 100 µM; in test [6], 2.1 µM. Moreover, the TGI in test [7] stood at 8.34 µM; in test [8], 6.56 µM; in [9], 11.9 µM.
Turning to `O=c1[nH]c(=O)n(C2OC(CO)C(O)C2O)c2c1CCCC2` (stereo not drawn), the TGI in [1], in [2], in test [10], in [3], in test [4] and in [5] was over 100 µM throughout. Besides, the TGI in test [6], in [7], in [8] and in test [9] was over 100 µM throughout.
Consider `Cn1c(=O)c(Oc2ccccc2F)cc2cnc(NC3CCOCC3)nc21`, for which the GI50 in [1], in test [2], in test [3], in [4], in test [5] and in test [6] was over 25 µM in each case. Also, the GI50 in [7], in [8] and in [9] was over 25 µM throughout. For the same compound, the TGI in test [1], in test [2], in test [3], in [4], in test [5] and in [6] was over 25 µM each time. Besides, the TGI in test [7], in [8] and in test [9] was over 25 µM throughout.
For `C[C@]1(CO)[C@H]2CC[C@@]34C=C[C@@](CO)(CC[C@H]3[C@]2(C)CC[C@H]1O)C4`, the TGI in [1], in test [2], in test [10], in test [3], in test [4] and in [5] was over 100 µM each time. Moreover, the TGI was 32.3 µM in test [6], over 100 µM in test [7], over 100 µM in [8] and over 100 µM in test [9].
As to `COC(=O)c1sc(C(=O)OC)c2c1CSC2`, the TGI in test [1], in test [2], in test [10], in test [3], in test [4] and in test [5] was over 100 µM throughout. The TGI was over 100 µM in test [6], over 100 µM in [7], over 97.1 µM in [8] and over 100 µM in test [9].
As to `Nc1ccc(S(=O)(=O)C23CC4CC(CC(C4)C2)C3)cc1`, the TGI in test [1], in test [2], in test [10], in test [3], in test [4] and in [5] was over 100 µM throughout. Also, the values for the TGI in test [6], in test [8] and in test [9] were over 100 µM, 79.4 µM and over 100 µM, respectively.
With `Cc1cc(C)c(C[N+](C)(C)C)c(C)c1C`, the GI50 in test [1] is 0.292 µM; in [2], 0.351 µM; in test [3], 0.212 µM; in test [4] it was 0.33 µM; in [5], 0.821 µM; in test [6] it was 0.209 µM. The GI50 in test [7] was 0.762 µM; in test [8], 0.249 µM; in test [9], 0.32 µM. Further, the TGI is 4.86 µM in [1]; over 67.2 µM in [2]; 23.4 µM in test [3]; 24.2 µM in test [4]; over 41.1 µM in test [5]; 2.82 µM in [6]. In addition, the TGI in test [7] was over 27.1 µM; in test [8], 3.43 µM; in [9], over 100 µM.
Turning to `Nc1ccc2c(c1)NCCN2`, the TGI in [1], in test [2], in test [10], in [3], in test [4] and in test [5] was over 100 µM throughout. For the same compound, the figures for the TGI in test [6], in [7] and in test [8] were 46.8 µM, over 100 µM and over 100 µM, respectively.
As to `NC1CCN(c2nc(Nc3cccc(C(F)(F)F)c3)c3c(=O)[nH]ccc3n2)CC1`, the GI50 in [1] is 1.77 µM; in test [2], 1.78 µM; in test [10], 1.35 µM; in [3] it was 1.37 µM; in test [5], 0.774 µM; in test [6] it was 1.54 µM. Further, the GI50 in test [7] is 1.53 µM; in test [8], 1.31 µM; in test [9] it was 1.19 µM. Also, the TGI in [1] was found to be 3.26 µM; in test [2], 3.59 µM; in test [10] it was 3.16 µM; in test [3], 2.8 µM; in test [5] it was 2.82 µM; in test [6], 2.9 µM. The TGI in [7] is 3.84 µM; in test [8] it was 2.67 µM; in test [9] it was 2.67 µM.
